Measured values as given in US20230172936A1, “VCP/p97 INHIBITOR FOR THE TREATMENT OF CANCER” (Cleave Therapeutics, Inc., priority 2020, published 2023).
Like-named read-outs stand apart in the source and are kept apart here.

How the values were obtained:
[1] = target: p97 (Homo sapiens, UniProt P55072); assay: P97 inhibition assay (ADP glo); type: biochemical
Experimental: The p97 assay is an assay used to determine inhibitory activity of compounds against the p97 complex. Inhibition of activity of the p97 proteosome complex can enable apoptosis and cause elimination of neoplastic cells (cancer cells). The assay follows that of Christianson in Nat. Cell Biol., (2011) 14:93. The reagents used for the p97 assay include an assay buffer which is a mixture of 50 mM TRIS pH 7.5, 20 mM MgCI˜, 0.02% TX-100, 1 mM DTT and 0.2% (v/v) glycerol. The well plate is a Corning 3674, 384w plate. The identification kit is an ADP glo kit (Promega): stop buffer, detection reagent.
The assay is conducted as follows: • Serial dilute compound in DMSO in a 1:3.33-fold 10 point serial dilution. • In each well of 384w plate add the following reagents: 0.5 μL compound serial diluted in DMSO (Final Conc. 10%) 2 μL ATP (Final Conc.=20 μM, diluted in assay buffer) 2.5 μL p97 (Final Conc.=20 nM, diluted in assay buffer). • Incubate at 37° C. for 15 min. • Add 5 μL of stop buffer, incubate at RT for 40 min. • Add 10 μL of detection reagent, incubate at RT for 30 min. • Read luminescence on Envision plate reader. […]

[2] = system: 30 passage 1 (P1) models of human acute myeloid leukemia; assay: Ex-vivo cytotoxicity by Cell Titer Glo, all models; type: cell-based; conditions: 144 h, single agent, 6 days, read-out: IC50s in these models
Experimental: (§1) Acute myelogenous leukemia (AML) is the most common acute leukemia in adults. A hematologic cancer, the disease is highly heterogeneous, with multiple subtypes. About 30% of AML cases harbor a FLT3/ITD mutation making the disease highly proliferative and more aggressive with a high risk of relapse.
(§2) Triplicate wells with media only and duplicate wells of vehicle (0.2% DMSO) were used as negative controls. […] To measure proliferation, untreated cells at days 0 and 6 were evaluated via Cell Titer Glo.
(§3) Protocol: • 1. AML cells were thawed and resuspended in enriched media composed of StemSpan™ Serum-Free Expansion Media (SFEM), 2% heat-inactivated FBS, StemSpan™ CC110 and recombinant human IL-3. • 2. 20,000 cells/well in 100 μL volume were plated on study day 0. • 3. […] Cells were incubated in the presence of drug for 6 days. • 5. On day 6, plates were removed from the incubator and equilibrated to room temperature for 20 minutes. 100 μL/well Cell Titer Glo was added to each well and incubated for 10 minutes before plate reading. • 6. Luminescence was recorded using Tecan Infinite M Plex plate reader.

[3] = system: MV-411 cell line; assay: Cytotoxicity by Cell Titer Glo; type: cell-based; conditions: Homo sapiens, MV4-11, 144 h, 6 days
Experimental: as §1, §2, §3

[4] = system: human A549 lung adenocarcinoma xenograft tumors; assay: Tumor growth of A549 xenograft tumors; type: in vivo, mice; conditions: 18 day period
Source text: (§4) Group 1 received PO 4-days on, 3-days off doses (QD4/3 off) of vehicle.

[5] = Source text: as §4
[6] = system: HL-60 cell line; assay: Combination treatments, Cell Titer-Glo viability after 72 hours; type: cell-based, human; conditions: HL-60
Experimental: (§5) The additional therapeutic agents for this example were azacitidine (Cayman Chemical Cat No. 11164), decitabine (Sigma Cat No. A3656) and venetoclax (InvivoChem Cat. No. V0001).
(§6) Cell Culture: Three human acute myeloid leukemia tumor cell lines were used in this study: HL60, MV4;11 and MOLM-13. HL60 and MV4;11 were grown in IMDM base media with 20% and 10% FBS, respectively. MOLM-13 was grown in RPMI 1640 base media with 20% FBS. All culture media contained 2 mM glutamine, 100 units/mL sodium penicillin G, […] gentamicin, and 100 μg/mL streptomycin sulfate. The tumor cells were cultured in tissue culture flasks in a humidified incubator at 37° C., in an atmosphere of 5% C02 and 95% air. Assay: Tumor cells were seeded in duplicate in a volume of 100 μL/well of media into 96-well micro-culture plates at initial densities low enough to allow for several population doublings (typically three to five) during the indicated incubation period. After a 24 hour incubation, test agents were added to each well. After 72 hours of culture with test articles, cell viability was determined using the Cell Titer-Glo® (Promega G7571) assay. Briefly, Cell Titer-Glo® (Promega G7571) reagents were equilibrated at room temperature for 30 minutes; 100 μL per well was added at endpoint (72 hours). Plates were gently shaken for two minutes and then incubated at room temperature for ten minutes prior to reading luminescence on the BMG Clariostar Plus microplate reader.
(§7) An IC50 ratio for each combination was calculated from the ratio of the combination IC50 as compared to the applicable no fixed agent (vehicle) control.

[7] = system: MOML-13 cell line; assay: as above; type: cell-based, human; conditions: MOML-13
Experimental: as §5, §6, §7

[8] = system: MV4; 11 cell line; assay: as above; type: cell-based, human; conditions: MV4, 11
Experimental: as §5, §6, §7

[9] = Adverse events and visual impairment in Phase I subjects
[10] = Homo sapiens, 72 h, no fixed agent (vehicle), read-out: IC50
[11] = fixed agent Venetoclax+ Azacitidine - 20 nM

p97, sequence (P55072 whole entry): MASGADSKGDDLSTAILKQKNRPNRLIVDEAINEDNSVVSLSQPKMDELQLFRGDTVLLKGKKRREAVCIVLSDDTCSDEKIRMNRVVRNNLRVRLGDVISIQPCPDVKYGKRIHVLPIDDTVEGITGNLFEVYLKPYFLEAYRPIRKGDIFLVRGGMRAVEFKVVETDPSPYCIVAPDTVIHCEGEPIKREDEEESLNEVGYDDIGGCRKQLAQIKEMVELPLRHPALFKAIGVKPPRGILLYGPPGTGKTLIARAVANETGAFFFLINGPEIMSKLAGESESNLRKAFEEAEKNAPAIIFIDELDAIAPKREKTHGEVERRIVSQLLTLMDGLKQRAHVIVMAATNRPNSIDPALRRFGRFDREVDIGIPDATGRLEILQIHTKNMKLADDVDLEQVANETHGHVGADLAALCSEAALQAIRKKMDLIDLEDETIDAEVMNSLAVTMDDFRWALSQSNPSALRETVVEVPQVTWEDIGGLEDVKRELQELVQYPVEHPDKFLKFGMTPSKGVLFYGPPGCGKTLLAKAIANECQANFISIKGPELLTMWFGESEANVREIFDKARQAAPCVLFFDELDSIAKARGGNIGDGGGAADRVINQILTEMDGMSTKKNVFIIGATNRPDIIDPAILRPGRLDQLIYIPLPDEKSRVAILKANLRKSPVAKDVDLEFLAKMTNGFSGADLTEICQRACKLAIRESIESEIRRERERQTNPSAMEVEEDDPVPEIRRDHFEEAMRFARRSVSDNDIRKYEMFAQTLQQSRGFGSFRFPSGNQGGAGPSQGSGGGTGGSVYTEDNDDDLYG

Cc1cc2c(C(N)=O)cccc2n1-c1nc2c(c(NCc3ccccc3)n1)CCCN2 [Compound 1, 1-(4-(Benzylamino)-5,6,7,8-tetrahydropyrido[2,3-d]pyrimidin-2-yl)-2-methyl-1H-indole-4-carboxamide]
IC50 [1]: < 30 nM | IC50 [2]: 200 to 800 nM | IC50 [3]: 262 nM | TGI ([4]; 100 mg/kg QD4/3 off): 61% | tumor growth inhibition (TGI) ([4]; 150 mg/kg BIW, PO): 20% | TGI ([4]; 225 mg/kg once weekly (1/W)): 31% | drug-related deaths ([5]; 100 mg/kg QD4/3 off): a single drug-related death | tolerability of dosing regimen ([5]; 100 mg/kg QD4/3 off): generally tolerated | mean body weight loss ([5]; 100 mg/kg QD4/3 off, day 2): −7.0% | deaths ([5]; 150 mg/kg BIW cohort): No deaths | body weight loss ([5]; 150 mg/kg BIW, day 2): −1.5% | body weight loss ([5]; 150 mg/kg BIW, day 3): −3.9% | drug related deaths ([5]; 225 mg/kg 1/W cohort): A single drug related death | body weight loss ([5]; 225 mg/kg weekly, day 4): −8.1% | Combination: Monotherapy IC50 Ratio ([6]; fixed agent Azacitidine - 5750 nM): 1.02 | Combination: Monotherapy IC50 Ratio ([6]; fixed agent Azacitidine - 9800 nM): 0.85 | Combination: Monotherapy IC50 Ratio ([6]; fixed agent Decitabine - 175 nM): 0.96 | Combination: Monotherapy IC50 Ratio ([6]; fixed agent Decitabine - 1700 nM): 1.06 | Combination: Monotherapy IC50 Ratio ([6]; fixed agent Venetoclax+ Azacitidine - 85 nM): 0.84 | Combination: Monotherapy IC50 Ratio ([6]; fixed agent Venetoclax+ Azacitidine - 475 nM): 0.84 | IC50 [6, 10]: 305 nM | IC50 [7, 10]: 216 nM | Combination: Monotherapy IC50 Ratio ([7]; fixed agent Azacitidine - 105 nM): 0.39 | Combination: Monotherapy IC50 Ratio ([7]; fixed agent Azacitidine - 850 nM): 0.39 | Combination: Monotherapy IC50 Ratio ([7]; fixed agent Decitabine - 2.5 nM): 0.56 | Combination: Monotherapy IC50 Ratio ([7]; fixed agent Decitabine - 8.5 nM): 0.30 | Combination: Monotherapy IC50 Ratio ([7]; fixed agent Venetoclax+ Azacitidine - 6.5 nM): 0.71 | Combination: Monotherapy IC50 Ratio [7, 11]: 0.52 | IC50 [8, 10]: 251 nM | Combination: Monotherapy IC50 Ratio ([8]; fixed agent Azacitidine - 500 nM): 0.46 | Combination: Monotherapy IC50 Ratio ([8]; fixed agent Azacitidine - 3150 nM): 0.47 | Combination: Monotherapy IC50 Ratio ([8]; fixed agent Decitabine - 30 nM): 0.47 | Combination: Monotherapy IC50 Ratio ([8]; fixed agent Decitabine - 215 nM): 0.36 | Combination: Monotherapy IC50 Ratio [8, 11]: 0.65 | Combination: Monotherapy IC50 Ratio ([8]; fixed agent Venetoclax+ Azacitidine - 50 nM): 0.47 | adverse events ([9]; 25 mg QD, two subjects): No adverse events | symptoms of visual impairment ([9]; 25 mg QD, two subjects): no symptoms of visual impairment | symptoms of visual impairment or other visual events ([9]; any dose levels, highest level 275 mg QD): No symptoms of visual impairment or other visual events | symptoms of visual impairment or other visual adverse events ([9]; at equivalent plasma exposure of Compound 1 and CB-5083): no symptoms of visual impairment or other visual adverse events
